According to US11261429B2, “Enriched and expanded human cord blood stem cells for treatment of hematological disorders” (ICAHN SCHOOL OF MEDICINE AT MOUNT SINAI, priority 2013, dated 2022):
Several values for one entry are separate records, joined by “and”; a condition that tells them apart may be missing. Identical values can stand only once.

Columns and labels:
Format in all cases: cell-based, human
CB CD34+ cells [1] = assay: Ex vivo expansion of CB CD34+ cells with HDACIs, phenotypic analysis by flow cytometry; conditions: for fold expansion of CD34+ cells / fold expansion of CD34+CD90+ cells: cytokines
Text: CB collections were purchased from the Placental Blood Program at the New York Blood Center. CB-MNCs were isolated by Ficoll-Hypaque density centrifugation, and CD34+ cells were purified by immunotnagnetic selection as previously described (Chaurasia et al., “Chromatin-Modifying Agents Promote the Ex vivo Production of Functional Human Erythroid Progenitor Cells,” Blood 117:4632-4641 (2011), which is hereby incorporated by reference in its entirety). Highly purified (90%-98%) PCs (4.0-5.0×10^4) were cultured in SF Stemline II (Sigma-Aldrich) culture medium or IMDM (Lonza) containing 30% FBS (HyClone Laboratories) supplemented with 150 ng/ml SCF, 100 ng/ml fms-like tyrosine kinase receptor 3 (FLT3 ligand), 100 ng/ml thrombopoietin (TPO), and 50 ng/ml interleukin 3 (IL-3) (R&D Systems) and incubated in a humidified incubator maintained at 37° C. with 5% CO2. […] The cell populations studied and the various conditions under which they were cultured are referred to by specific terms listed in Table 1. Viable PC and cultured cells were enumerated using the trypan blue exclusion method. The fold expansion of CD34+ cells or subpopulations was calculated based on the number of CD34+ cells determined to be present in an individual CB collection and the number of CD34+ cells that would have been generated if all of the CD34+ cells within that primary CB collection were cultured using the various culture conditions described. PC or cultured cells expanded in the presence or absence of HDACIs were stained with an anti-human CD34 mAb or an isotype-matched control mAb and analyzed using a FACSCanto II (BD). CD34+ cells were re-isolated using a CD34+ cell isolation kit, as previously described, for further phenotypic and functional analyses. All mAbs were purchased from BD Biosciences and Cell Signaling Technology. Phenotypic analyses ([…], […], and […]7) of the ex vivo-expanded cells after 7 days in control cultures or cytokines plus an HDACI were performed as previously described (Chaurasia et al., “Chromatin-Modifying Agents Promote the Ex vivo Production of Functional Human Erythroid Progenitor Cells,” Blood 117:4632-4641 (2011), which is hereby incorporated by reference in its entirety).

CD34+CD90+ cells = assay: Cell cycle analysis by BrdU labeling
Description: The cell cycle status of the cultured CD34+CD90+ cells was assessed using the FITC-BrdU Kit (BD Pharmingen) according to the manufacturer's instructions. CB CD34+ cells cultured for 7 days under control conditions in the presence of VPA were subsequently pulsed with BrdU for 2.5 hours. […] After permeabilization, cells were treated with 30 μg of DNAse for 30 minutes at 37° C. and then stained with an FITC-conjugated anti-BrdU antibody and 7AAD. The cell cycle status of CD34+CD90+ gated cells was then documented using a FAC-SCanto II Flow Cytometer with FACSDiva software (BD Biosciences).

HDAC2 = assay: HDAC protein levels in CB-MNCs, Western blot densitometry; conditions: 24 hr, SCR 8 μM, C433 80 μM, VPA 1.25 mM
HDAC3 = assay: as above; conditions: 24 hr, SCR 8 μM, C433 80 μM, VPA 1.25 mM
Description: Cellular proteins were separated by SDS-PAGE using Novex (Invitrogen) and transferred by iBlot (Invitrogen). The membranes were probed with mAbs against individual histone deacetylases (HDAC1, HDAC2, HDAC3, HDAC4, HDAC5, HDAC6, and β-actin; Cell Signaling Technology) and developed using a chemiluminescence system with HRP-conjugated secondary antibodies (Amersham Biosciences) according to the manufacturer's instructions.

hTERT = assay: qPCR of pluripotency genes in CD34+ cells; conditions: VPA-treated CD34+ cells
Description: Total RNA was extracted from the human ES cell line 89 (WA09; WiCell Research Institute Inc., Madison, Wis., USA), PCs, reisolated CD34+ cells from control cultures or cultures containing VPA in SF and SC media using TRIzol and an RNeasy kit from QIAGEN, CA. Total RNA (0.5-1.0 μg) was reverse transcribed into cDNA using an RNA to cDNA EcoDry Premix kit (Clontech). The primer sequences are listed in Table 6. qPCR was performed using SYBR Green (Thermo Fisher Scientific) and the Realplex thermocycler (Eppendorf). All experiments were performed in triplicate, and non-template controls (lacking cDNA template were included in each assay. GAPDH served as an internal standard. The amplicons were run on a 2% agarose gel with a 50-bp-size (DNA ladder) marker.

CB CD34+ cells [2] = assay: Effect of siRNA transfection on cell numbers and CD34+/CD34+CD90+ cells; conditions: VPA culture, 72 hrs after transfection
Description: CB CD34+ cells were treated with VPA under SF culture conditions. VPA-treated cells were transfected with individual SOX2, OCT4, NANOG, GAPDH, and scrambled siRNA or with a combination of SOX2, OCT4, and NANOG Silencer Select siRNAs (Invitrogen, CA). A GFP plasmid was included to determine the transfection efficiency according to the manufacturer's instructions for the Neon transfection system (Invitrogen).
After 72 hours of VPA treatment, cells (0.5×10^6 to 1×10^6) were washed in PBS and suspended in 8 μl of Neon resuspension buffer R. Individual siRNAs (2 μl, 10-30 nM) or a combination of SOX2, OCT4, NANOG (SON), or pcDNA6.2/EmGFP plasmid (200 ng; Invitrogen) were mixed with the 8 μl of cells according to the manufacturer's instructions. Cells were pulsed three times with a voltage of 1,400 and a width of 20 ms and immediately transferred to pre-warmed media supplemented with cytokines plus VPA. […]
In addition, cells treated with scrambled or combined SON siRNA were stained using human CD34 and CD90 mAbs, and the percentages of CD34+ and CD34+CD90+ cells were determined by flow cytometric analysis. […] SOX2, OCT4, NANOG, and ZIC3 protein expression levels following SON siRNA-mediated pluripotency gene knockdown were assessed by confocal microscopy as described above.

[3] = SF cultures containing VPA, 7 days

CCCC(CCC)C(=O)O [VPA, valproic acid]
percentage of CD34+CD90+ cells (CB CD34+ cells [1]; 7 days of culture with cytokines plus HDACI): 75.2%±10.7% and 74.2±9.8%
fold expansion of CD34+ cells (CB CD34+ cells [1]; SC conditions, 7 days): 78 fold
fold expansion of CD34+CD90+ cells (CB CD34+ cells [1]; SC conditions, 7 days): 89 fold
fold expansion of CD34+ cells (CB CD34+ cells [1]; SF conditions, 7 days): 213 fold
fold expansion of CD34+CD90+ cells (CB CD34+ cells [1]; SF conditions, 7 days): 20,202 fold
CD34+CD90+ cells expressing CD45RA (CB CD34+ cells [1]; [3]): 1.9%±2.1%
CD34+CD90+ cells expressing CD49f (CB CD34+ cells [1]; [3]): 47.0%±4.4%
B Cells (CD19) (CB CD34+ cells [1]; VPA-treated cells after 7 days): 0.5±0.1%
CD14+ cells (CB CD34+ cells [1]; VPA-treated cells after 7 days): 3.9±1.5%
CD41+ cells (CB CD34+ cells [1]; VPA-treated cells after 7 days): 8.9±2.0%
Glycophorin+ cells (CB CD34+ cells [1]; VPA-treated cells after 7 days): 17.0±5.4%
T Cells (CD3) (CB CD34+ cells [1]; VPA-treated cells after 7 days): 0.2±0.3%
percent CD34+CD90+ cells, flow cytometric analysis (FIG. 4A) (CD34+CD90+ cells; SF culture with VPA 7 days, one of 3 representative experiments): 82.9%
CD34+CD90+ cells in G0/G1 (CD34+CD90+ cells; day 7, BrdU pulse 2.5 hours): 23.2%±13.8%
CD34+CD90+ cells in G2/M (CD34+CD90+ cells; day 7, BrdU pulse 2.5 hours): 18.0%±1.2%
CD34+CD90+ cells in S phase (CD34+CD90+ cells; day 7, BrdU pulse 2.5 hours): 29.4%±7.9%
HDAC2 expression relative to b-ACTIN (%) (HDAC2): 45.8 ± 25.2%
HDAC3 expression relative to b-ACTIN (%) (HDAC3): 11.4 ± 12.4%
hTERT expression (hTERT): not upregulated
CD34+CD90+ cells (%) (CB CD34+ cells [2]): 78.6 ± 2.0 %
Total number of cells/well (CB CD34+ cells [2]): 4.0 × 10^6 ± 0.4 × 10^6 cells/well
